Source: PubChem BioAssay (NCI)
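Interpolation was linear, between the two tested concentrations surrounding the appropriate level; five concentrations were tested over 48 hours in 96-well plates. GI50: concentration for 50% inhibition of growth. The concentration for full growth arrest is given as TGI.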

What was measured:
Experiment in all cases: growth of human tumour cells (NCI), 48 h
SK-OV-3 ovarian = system: SK-OV-3 ovarian
HCT-116 colon = system: HCT-116 colon
HOP-92 NSCLC = system: HOP-92 NSCLC
PC-3 prostate = system: PC-3 prostate
SK-MEL-5 melanoma = system: SK-MEL-5 melanoma
BT-549 breast = system: BT-549 breast
HOP-62 NSCLC = system: HOP-62 NSCLC
NCI-H23 lung = system: NCI-H23 lung
EKVX NSCLC = system: EKVX NSCLC
M14 melanoma = system: M14 melanoma
KM12 colon = system: KM12 colon
SF-268 CNS = system: SF-268 CNS
786-0 renal = system: 786-0 renal
HCT-15 colon = system: HCT-15 colon
OVCAR-4 ovarian = system: OVCAR-4 ovarian
NCI-H226 lung = system: NCI-H226 lung
SF-295 CNS = system: SF-295 CNS
T-47D breast = system: T-47D breast
OVCAR-3 ovarian = system: OVCAR-3 ovarian
SNB-19 CNS = system: SNB-19 CNS
HL-60(TB) leukemia = system: HL-60(TB) leukemia
UO-31 renal = system: UO-31 renal
CAKI-1 renal = system: CAKI-1 renal
ACHN renal = system: ACHN renal
K-562 leukemia = system: K-562 leukemia
IGROV1 ovarian = system: IGROV1 ovarian
TK-10 renal = system: TK-10 renal
OVCAR-8 ovarian = system: OVCAR-8 ovarian
DU-145 prostate = system: DU-145 prostate
RPMI-8226 leukemia = system: RPMI-8226 leukemia
HS 578T breast = system: HS 578T breast
U251 CNS = system: U251 CNS
SNB-75 CNS = system: SNB-75 CNS
CCRF-CEM leukemia = system: CCRF-CEM leukemia
A498 renal = system: A498 renal
HCC-2998 colon = system: HCC-2998 colon
UACC-257 melanoma = system: UACC-257 melanoma
NCI-H522 lung = system: NCI-H522 lung
SK-MEL-28 melanoma = system: SK-MEL-28 melanoma
SR leukemia = system: SR leukemia
SW-620 colon = system: SW-620 colon
A549 NSCLC = system: A549 NSCLC
COLO 205 colon = system: COLO 205 colon
MDA-MB-435 = system: MDA-MB-435
MOLT-4 leukemia = system: MOLT-4 leukemia
UACC-62 melanoma = system: UACC-62 melanoma
SN12C renal = system: SN12C renal
RXF 393 renal = system: RXF 393 renal
OVCAR-5 ovarian = system: OVCAR-5 ovarian
SK-MEL-2 melanoma = system: SK-MEL-2 melanoma
HT29 colon = system: HT29 colon
SF-539 CNS = system: SF-539 CNS
MCF7 breast = system: MCF7 breast
MALME-3M melanoma = system: MALME-3M melanoma
MDA-MB-468 breast = system: MDA-MB-468 breast
LOX IMVI melanoma = system: LOX IMVI melanoma
NCI-H460 lung = system: NCI-H460 lung
MDA-MB-231 breast = system: MDA-MB-231 breast

COc1cccc(NC(=O)c2ccc(NC(=O)CCl)s2)c1
GI50 (SK-OV-3 ovarian): 27 µM | TGI (SK-OV-3 ovarian): 66.5 µM | GI50 (HCT-116 colon): 22.4 µM | TGI (HCT-116 colon): 88.9 µM | GI50 (HOP-92 NSCLC): 15.4 µM | TGI (HOP-92 NSCLC): 34.7 µM | GI50 (PC-3 prostate): 14.9 µM | TGI (PC-3 prostate): 34.9 µM | GI50 (SK-MEL-5 melanoma): 17.4 µM | TGI (SK-MEL-5 melanoma): 34.6 µM | GI50 (BT-549 breast): 12.2 µM | TGI (BT-549 breast): 29.1 µM | GI50 (HOP-62 NSCLC): 56.7 µM | TGI (HOP-62 NSCLC): > 100 µM | GI50 (NCI-H23 lung): 17.2 µM | TGI (NCI-H23 lung): 35.5 µM | GI50 (EKVX NSCLC): 26.4 µM | TGI (EKVX NSCLC): > 100 µM | GI50 (M14 melanoma): 16.3 µM | TGI (M14 melanoma): 39.4 µM | GI50 (KM12 colon): 21.2 µM | TGI (KM12 colon): 54.1 µM | GI50 (SF-268 CNS): 25 µM | TGI (SF-268 CNS): > 100 µM | GI50 (786-0 renal): 17.1 µM | TGI (786-0 renal): 33 µM | GI50 (HCT-15 colon): 11.3 µM | TGI (HCT-15 colon): 40.5 µM | GI50 (OVCAR-4 ovarian): 39.2 µM | TGI (OVCAR-4 ovarian): > 100 µM | GI50 (NCI-H226 lung): 15.8 µM | TGI (NCI-H226 lung): 39.2 µM | GI50 (SF-295 CNS): 46.6 µM | TGI (SF-295 CNS): > 100 µM | GI50 (T-47D breast): 34.5 µM | TGI (T-47D breast): > 100 µM | GI50 (OVCAR-3 ovarian): 16.7 µM | TGI (OVCAR-3 ovarian): 33.8 µM | GI50 (SNB-19 CNS): 21.8 µM | TGI (SNB-19 CNS): 65.8 µM | GI50 (HL-60(TB) leukemia): 17.4 µM | TGI (HL-60(TB) leukemia): 99 µM | GI50 (UO-31 renal): 13.7 µM | TGI (UO-31 renal): 27.6 µM | GI50 (CAKI-1 renal): 16.1 µM | TGI (CAKI-1 renal): 42 µM | GI50 (ACHN renal): 17.4 µM | TGI (ACHN renal): 35.9 µM | GI50 (K-562 leukemia): 16.4 µM | TGI (K-562 leukemia): > 100 µM | GI50 (IGROV1 ovarian): 16.8 µM | TGI (IGROV1 ovarian): 35.5 µM | GI50 (TK-10 renal): > 100 µM | TGI (TK-10 renal): > 100 µM | GI50 (OVCAR-8 ovarian): 18.5 µM | TGI (OVCAR-8 ovarian): 39.3 µM | GI50 (DU-145 prostate): 36.4 µM | TGI (DU-145 prostate): > 100 µM | GI50 (RPMI-8226 leukemia): 18.7 µM | TGI (RPMI-8226 leukemia): 46.8 µM | GI50 (HS 578T breast): 20.3 µM | TGI (HS 578T breast): 61.1 µM | GI50 (U251 CNS): 16.8 µM | TGI (U251 CNS): 31.5 µM | GI50 (SNB-75 CNS): 11.7 µM | TGI (SNB-75 CNS): > 100 µM | GI50 (CCRF-CEM leukemia): 6.87 µM | TGI (CCRF-CEM leukemia): 51.2 µM | GI50 (A498 renal): > 100 µM | TGI (A498 renal): > 100 µM | GI50 (HCC-2998 colon): 47.8 µM | TGI (HCC-2998 colon): > 100 µM | GI50 (UACC-257 melanoma): 55.3 µM | TGI (UACC-257 melanoma): > 100 µM | GI50 (NCI-H522 lung): 13.9 µM | TGI (NCI-H522 lung): 30.8 µM | GI50 (SK-MEL-28 melanoma): 20.6 µM | TGI (SK-MEL-28 melanoma): 52.6 µM | GI50 (SR leukemia): 4.92 µM | TGI (SR leukemia): 56.2 µM | GI50 (SW-620 colon): 13.4 µM | TGI (SW-620 colon): 30.5 µM | GI50 (A549 NSCLC): 21.7 µM | TGI (A549 NSCLC): 53.9 µM | GI50 (COLO 205 colon): 27.9 µM | TGI (COLO 205 colon): 70.8 µM | GI50 (MDA-MB-435): 18.6 µM | TGI (MDA-MB-435): 60.9 µM | GI50 (MOLT-4 leukemia): 12.5 µM | TGI (MOLT-4 leukemia): 55.8 µM | GI50 (UACC-62 melanoma): 15.3 µM | TGI (UACC-62 melanoma): 29.2 µM | GI50 (SN12C renal): 16.1 µM | TGI (SN12C renal): 33.2 µM | GI50 (RXF 393 renal): 13.6 µM | TGI (RXF 393 renal): 36.9 µM | GI50 (OVCAR-5 ovarian): 21 µM | TGI (OVCAR-5 ovarian): 46.8 µM | GI50 (SK-MEL-2 melanoma): 28.6 µM | TGI (SK-MEL-2 melanoma): > 100 µM | GI50 (HT29 colon): 20.3 µM | TGI (HT29 colon): 44.2 µM | GI50 (SF-539 CNS): 16.7 µM | TGI (SF-539 CNS): 31 µM | GI50 (MCF7 breast): 20.1 µM | TGI (MCF7 breast): 66.4 µM | GI50 (MALME-3M melanoma): 12.5 µM | TGI (MALME-3M melanoma): 28.5 µM | GI50 (MDA-MB-468 breast): 14.2 µM | TGI (MDA-MB-468 breast): 30.6 µM | GI50 (LOX IMVI melanoma): 11.4 µM | TGI (LOX IMVI melanoma): 25.1 µM | GI50 (NCI-H460 lung): 20.8 µM | TGI (NCI-H460 lung): 45.2 µM | GI50 (MDA-MB-231 breast): 15.6 µM | TGI (MDA-MB-231 breast): 32.6 µM
